≈ marks a conversion by molar mass, not a printed value.
Legend:
Hyalomma lusitanicum = assay: Anti-insecticidal activity against Hyalomma lusitanicum Koch larvae assessed as inhibition of larval growth; format: functional; details: for LC50: Hyalomma lusitanicum, read-out: LD50 (the source's name)
MCF7 [1] = assay: Antiproliferative activity against human MCF7 cells assessed as reduction in cell viability incubated for 48 hrs by CytoX cell viability assay; format: functional, cell-based; details: MCF7, 48 h
HeLa = assay: Antiproliferative activity against human HeLa cells assessed as reduction in cell viability incubated for 48 hrs by CytoX cell viability assay; format: functional, cell-based
DU-145 = assay: Antiproliferative activity against human DU-145 cells assessed as reduction in cell viability incubated for 48 hrs by CytoX cell viability assay; format: functional, cell-based; details: DU-145, 48 h
HCT-15 = assay: Antiproliferative activity against human HCT-15 cells assessed as reduction in cell viability incubated for 48 hrs by CytoX cell viability assay; format: functional, cell-based; details: HCT-15, 48 h
K562 = assay: Antiproliferative activity against human K562 cells assessed as reduction in cell viability incubated for 48 hrs by CytoX cell viability assay; format: functional, cell-based; details: K562, 48 h
HEp-2 = assay: Cytotoxicity against human HEp-2 cells assessed as inhibition of cell growth; format: functional; details: read-out: ED50 (the source's name)
PC-3 = assay: Cytotoxicity against human PC-3 cells assessed as inhibition of cell growth incubated for 48 hrs by SRB assay; format: functional, cell-based; details: PC-3, 48 h
MCF7 [2] = assay: Cytotoxicity against human MCF7 cells assessed as inhibition of cell growth incubated for 48 hrs by SRB assay; format: functional, cell-based; details: MCF7, 48 h
MDA-MB-231 = assay: Cytotoxicity against human MDA-MB-231 cells assessed as inhibition of cell growth incubated for 48 hrs by SRB assay; format: functional, cell-based; details: MDA-MB-231, 48 h
MG-63 [3] = assay: Antiproliferative activity against human MG-63 cells assessed as inhibition of cell growth by MTT assay; format: functional, cell-based
MG-63 [4] = assay: Antiproliferative activity against human MG-63 cells assessed as reduction in cell viability by SRB assay; format: functional, cell-based
A2780 = assay: Cytotoxicity against human A2780 cells assessed as inhibition of cell growth incubated for 96 hrs by SRB assay; format: toxicity, cell-based; details: A2780, 96 h

Structure (SMILES): CC1=CCC[C@]2(C)CC(=O)C3(C[C@@H]12)OC3(C)C (some centres undefined)
- LD90 (Hyalomma lusitanicum): 1.91 mg/mL
- LC50 (Hyalomma lusitanicum): 230 µg/mL (≈ 981 µM)

Structure (SMILES): Cc1cc(=O)c2c(OCC3CO3)cc(OCC3CO3)cc2o1 (centres undefined)
- IC50 (MCF7 [1]): 6.5 µM
- IC50 (HeLa): 5.4 µM
- IC50 (DU-145): 7.3 µM
- IC50 (HCT-15): 12.1 µM
- IC50 (K562): 6.3 µM

Structure (SMILES): CC[C@@]1(O)C(=O)OCc2c1cc1n(c2=O)Cc2cc3ccccc3nc2-1 [CAMPTOTHECIN]
- IC50 (MCF7 [1]): 2.8 µM
- IC50 (HeLa): 6 µM
- IC50 (DU-145): 1.99 µM
- IC50 (HCT-15): 1.59 µM
- IC50 (K562): 2.69 µM

Structure (SMILES): C[C@@H]1C[C@H]2OC(=O)C(C3CO3)[C@H]2[C@H](O)[C@]2(C)C(=O)C3OC3[C@@H]12 (some centres undefined)
- EC50 (HEp-2): 0.11 µg/mL (≈ 0.357 µM)

Structure (SMILES): C=C1C(=O)O[C@@H]2C[C@@H](C)[C@@H]3C4OC4C(=O)[C@@]3(C)[C@@H](O)[C@H]12 (some centres undefined)
- EC50 (HEp-2): 0.11 µg/mL (≈ 0.395 µM)

Structure (SMILES): C[C@]12CC[C@H]3[C@@H]([C@@H]4O[C@@H]4C4=CC(=O)C=C[C@@]43C)[C@@H]1CC(=O)OC2
- IC50 (PC-3): > 100 µM
- IC50 (MCF7 [2]): > 100 µM
- IC50 (MDA-MB-231): > 100 µM

Structure (SMILES): C[C@@H]1CC[C@@H]([C@]2(C)CO2)[C@H](OCc2ccccc2)C1
- IC50 (MG-63 [3]): 100 µM
- IC50 (MG-63 [4]): 100 µM

Structure (SMILES): C[C@@H]1OC(=O)C[C@H]2[C@@H]3CC[C@]45O[C@H]4C(=O)CC[C@]5(C)[C@H]3CC[C@]12C
- IC50 (MDA-MB-231): 3.6 µM

Structure (SMILES): Cc1cc(=O)c2c(OC[C@H]3CO3)cc(OC[C@H]3CO3)cc2o1
- IC50 (MCF7 [1]): 220 µM
- IC50 (HeLa): 11.4 µM
- IC50 (DU-145): 15.6 µM
- IC50 (HCT-15): 229 µM
- IC50 (K562): 7.86 µM

Structure (SMILES): Cc1cc(=O)c2c(OC[C@H]3CO3)cc(OC[C@@H]3CO3)cc2o1
- IC50 (MCF7 [1]): 1.88 µM
- IC50 (HeLa): 1.77 µM
- IC50 (DU-145): 628 µM
- IC50 (HCT-15): 9.59 µM
- IC50 (K562): 0.04 µM

Structure (SMILES): C[C@]12CC[C@H]3[C@@H](C[C@@H]4O[C@@]45C[C@@H](O)CC[C@]35C)[C@@H]1CC(=O)OC2
- IC50 (MDA-MB-231): 39.8 µM

Structure (SMILES): CC(C)=C1C[C@H]2O[C@@]2(C)CC/C=C(\C)CC1=O
- LD90 (Hyalomma lusitanicum): 3.45 mg/mL
- LC50 (Hyalomma lusitanicum): 1470 µg/mL (≈ 6270 µM)

Structure (SMILES): CC1=CC[C@]23O[C@@]2(C)CC[C@@H]2[C@H](OC(=O)[C@H]2CN2CCNCC2)[C@@H]13
- IC50 (A2780): 3.75 µM

Structure (SMILES): CC(C)=C1C/C=C(\C)CCCC2(C)OC2C1=O (centres undefined)
- LD90 (Hyalomma lusitanicum): 2.98 mg/mL
- LC50 (Hyalomma lusitanicum): 2320 µg/mL (≈ 9900 µM)

Structure (SMILES): CC(C)=C1C/C=C(\C)CC/C=C(\C)CC1=O
- LD90 (Hyalomma lusitanicum): 3.13 mg/mL
- LC50 (Hyalomma lusitanicum): 1080 µg/mL (≈ 4950 µM)

Structure (SMILES): C[C@@H]1CC[C@@H]([C@@]2(C)CO2)[C@H](OCc2ccccc2)C1
- IC50 (MG-63 [3]): 100 µM
- IC50 (MG-63 [4]): 100 µM

Structure (SMILES): CC1C(=O)O[C@@H]2C[C@@H](C)[C@]34O[C@H]3CC(=O)[C@@]4(C)[C@@H](O)[C@H]12 (some centres undefined)
- EC50 (HEp-2): 0.11 µg/mL (≈ 0.392 µM)

Structure (SMILES): CC(C)=C1C/C=C(\C)CC[C@H]2O[C@@]2(C)CC1=O
- LD90 (Hyalomma lusitanicum): 4.1 mg/mL
- LC50 (Hyalomma lusitanicum): 2700 µg/mL (≈ 11500 µM)

Structure (SMILES): C=C1C(=O)O[C@@H]2[C@H]3C(C)=CC[C@@]34O[C@@]4(C)CC[C@@H]12 [ARGLABIN]
- IC50 (A2780): 12.6 µM
